Experimental findings from US20230398211A1, “Liposomes Containing TLR4 Agonist, Preparation and Uses Thereof” (priority 2020, published 2023) are described below.

Series [1] is described as follows: Alcohol solubility of E6020 and MPL in ethanol by nephelometry.
Description: The appearance and increase of opalescence, indicative of insolubility was followed by nephelometry.
RNU (Relative nephelometry Unit) of each solution was recorded and plotted on a graph.
The next series concerns sheep red blood cells. As to the kind of experiment: Hemolysis assay. It is filed as cell-based. The settings on record: 30 minutes at 37° C. On the procedure: Before use, red blood cells (Sheep red blood cells 10%, Rockland, ref R405-0050, lot BP30202 (stored+4° C.) were washed in cold PBS. Five mL of sheep red blood cells were transferred into a 15 mL Falcon tube and 7 mL of cold PBS were added. Cells were centrifuged for 10 min 700 g at 4° C. Supernatant was carefully removed and cell pellet was suspended in 12 mL of cold PBS. Then, cell suspension was centrifuged for 10 min, 700 g at 4° C. The cell suspension and centrifugation steps were repeated twice. Finally, cells were suspended in PBS in a final volume of 5 mL ready-to-use.
In a round bottom P96 plate, 100 μL per well of PBS were added. Then, 100 μL per well of saponin QS21 or QS7 solutions were added in serial 2-fold dilutions (1.6 μM to 200 μM-) in a citrate buffer (Citrate 10 mM, NaCl 140 mM, pH 6.3). […]
Twenty-five μL/well of 10% red blood cell solution were added, and the plates were incubated for 30 minutes at 37° C. and then were centrifuged for 5 min 700 g at room temperature. Eighty μL per well of surnageant were collected and transfered to a flat bottom plate for spectrophotometer reading (OD 540 nm). The percentage of cell hemolysis is calculated for each saponin concentration tested in μM according to the formula: 100×[(sample absorbance−negative control absorbance)[…](positive control absorbance−negative control absorbance)]. […]

Consider “3-O-desacyl-4′-monophosphoryl lipid A [MPL]”, for which the “appearance of ethanol solution (opalescence)” value in series [1] (0.5, 1.0, 2.0 and 10 mg/ml in absolute ethanol, mixed 3h at room temperature) was “opalescent even at the lowest concentration tested”. Moreover, the solubility in ethanol entry in series [1] (absolute ethanol, room temperature (about 25° C.), nephelometry) is “very low solubility”.
As for QS21, the EC50 with sheep red blood cells (read-out: effective concentration inducing hemolysis of 50% red blood cells (EC50)) turned out to be 4.2 µM. Also, in the series on sheep red blood cells (from 25 μM to 100 μM), the erythrocyte hemolysis is 100%.
